Measurements as given in ChEMBL document CHEMBL4665885, “Structural Basis of Nanomolar Inhibition of Tumor-Associated Carbonic Anhydrase IX: X-Ray Crystallographic and Inhibition Study of Lipophilic Inhibitors with Acetazolamide Backbone” (J Med Chem, 2020).

Key:
Carbonic anhydrase 1 = Carbonic anhydrase 1 (Homo sapiens, UniProt P00915); assay: Inhibition of recombinant human CA1 expressed in Escherichia coli BL21 preincubated for 15 mins by phenol red dye-based stopped-flow CO2 hydration assay
Carbonic anhydrase 9 = Carbonic anhydrase 9 (Homo sapiens, UniProt Q16790); assay: Inhibition of recombinant human CA9 expressed in Escherichia coli BL21 preincubated for 15 mins by phenol red dye-based stopped-flow CO2 hydration assay

Chain of Carbonic anhydrase 1 (P00915 whole entry): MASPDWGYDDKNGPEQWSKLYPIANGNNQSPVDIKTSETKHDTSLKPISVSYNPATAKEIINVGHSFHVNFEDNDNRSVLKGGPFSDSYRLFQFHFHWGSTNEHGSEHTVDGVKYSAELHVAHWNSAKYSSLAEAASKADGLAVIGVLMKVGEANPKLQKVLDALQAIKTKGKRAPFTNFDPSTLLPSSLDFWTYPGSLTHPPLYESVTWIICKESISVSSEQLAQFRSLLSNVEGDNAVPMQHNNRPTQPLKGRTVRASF

| Compound | Ki (Carbonic anhydrase 1) | Ki (Carbonic anhydrase 9) |
| --- | --- | --- |
| CC(C)C(=O)Nc1nnc(S(N)(=O)=O)s1 | 75.1 nM | 2.4 nM |
| NS(=O)(=O)c1nnc(NC(=O)C2CCCCC2)s1 | 62.8 nM | 15.7 nM |
| CC(C)(C)C(=O)Nc1nnc(S(N)(=O)=O)s1 | 63.4 nM | 8.2 nM |
| CCC(=O)Nc1nnc(S(N)(=O)=O)s1 [PROPAZOLAMIDE] |  | 12.8 nM |
| CCCC(=O)Nc1nnc(S(N)(=O)=O)s1 | 53.8 nM | 2.1 nM |
